Assay [1] has as its target Phosphatidylinositol 4-phosphate 3-kinase C2 domain-containing subunit beta (Homo sapiens) (UniProt O00750). Put plainly: Inhibition of PIK3C2B (unknown origin) assessed as residual activity at 1000 nM by KINOMEscan analysis relative to control.
Assay [2] concerns the target T1, NUAK family SNF1-like kinase 2 (Homo sapiens) (UniProt Q9H093).
T1 sequence (whole entry): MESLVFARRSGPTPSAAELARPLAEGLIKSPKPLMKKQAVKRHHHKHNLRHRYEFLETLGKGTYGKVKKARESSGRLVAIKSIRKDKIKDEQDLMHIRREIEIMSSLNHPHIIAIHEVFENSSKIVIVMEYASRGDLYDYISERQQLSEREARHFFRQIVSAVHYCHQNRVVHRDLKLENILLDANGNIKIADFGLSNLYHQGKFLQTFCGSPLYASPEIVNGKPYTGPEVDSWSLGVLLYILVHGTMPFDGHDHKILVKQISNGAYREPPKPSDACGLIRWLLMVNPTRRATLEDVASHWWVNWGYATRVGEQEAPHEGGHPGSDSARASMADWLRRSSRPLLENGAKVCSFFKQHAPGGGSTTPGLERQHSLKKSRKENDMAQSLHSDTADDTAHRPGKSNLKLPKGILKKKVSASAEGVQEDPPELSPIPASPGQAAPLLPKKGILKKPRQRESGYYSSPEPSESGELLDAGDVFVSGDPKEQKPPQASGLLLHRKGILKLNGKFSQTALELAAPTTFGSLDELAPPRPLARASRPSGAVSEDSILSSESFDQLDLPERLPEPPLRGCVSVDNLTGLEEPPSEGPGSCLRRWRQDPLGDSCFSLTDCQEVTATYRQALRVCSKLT
In words: Inhibition of SNARK (unknown origin) assessed as residual activity at 1000 nM by KINOMEscan analysis relative to control.

Assay [3] addresses T2, Dual serine/threonine and tyrosine protein kinase (Homo sapiens) (UniProt Q6XUX3).
T2 sequence (whole entry): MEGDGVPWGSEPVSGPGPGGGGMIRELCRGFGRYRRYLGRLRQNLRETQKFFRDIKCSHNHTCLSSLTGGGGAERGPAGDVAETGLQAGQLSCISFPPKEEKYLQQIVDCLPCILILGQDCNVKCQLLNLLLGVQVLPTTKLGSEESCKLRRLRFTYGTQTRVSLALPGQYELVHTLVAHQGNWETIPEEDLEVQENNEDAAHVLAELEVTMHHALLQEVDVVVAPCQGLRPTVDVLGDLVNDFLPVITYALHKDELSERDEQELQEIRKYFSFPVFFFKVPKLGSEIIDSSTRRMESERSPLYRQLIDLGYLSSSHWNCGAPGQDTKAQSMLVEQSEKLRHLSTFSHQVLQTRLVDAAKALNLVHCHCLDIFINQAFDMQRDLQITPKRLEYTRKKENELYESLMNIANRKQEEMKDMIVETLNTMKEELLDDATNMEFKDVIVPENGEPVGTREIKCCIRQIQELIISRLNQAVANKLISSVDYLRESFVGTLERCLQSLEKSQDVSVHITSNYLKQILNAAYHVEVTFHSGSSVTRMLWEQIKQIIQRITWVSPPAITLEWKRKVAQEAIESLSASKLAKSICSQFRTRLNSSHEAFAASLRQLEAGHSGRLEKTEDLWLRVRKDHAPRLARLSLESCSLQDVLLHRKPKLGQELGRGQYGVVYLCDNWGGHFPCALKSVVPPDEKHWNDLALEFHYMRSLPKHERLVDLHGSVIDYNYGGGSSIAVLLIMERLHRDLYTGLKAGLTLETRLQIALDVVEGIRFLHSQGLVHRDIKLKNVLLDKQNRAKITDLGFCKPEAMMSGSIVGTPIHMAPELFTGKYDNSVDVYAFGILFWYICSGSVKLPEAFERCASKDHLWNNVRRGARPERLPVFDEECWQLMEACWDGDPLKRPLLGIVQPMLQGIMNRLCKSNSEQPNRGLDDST
In words: Inhibition of RIPK5 (unknown origin) assessed as residual activity at 1000 nM by KINOMEscan analysis relative to control.

Assay [4] deals with Mast/stem cell growth factor receptor Kit (Homo sapiens), P10721 [V559D,T670I]. Put plainly: Inhibition of KIT V559D/T670I mutant (unknown origin) assessed as residual activity at 1000 nM by KINOMEscan analysis relative to control.
Assay [5] concerns the target Serine/threonine-protein kinase PLK3 (Homo sapiens) (UniProt Q9H4B4). Put plainly: Inhibition of PLK3 (unknown origin) assessed as residual activity at 1000 nM by KINOMEscan analysis relative to control.
For assay [6], the target named is T3, Interleukin-1 receptor-associated kinase 4 (Homo sapiens) (UniProt Q9NWZ3).
T3 sequence (whole entry): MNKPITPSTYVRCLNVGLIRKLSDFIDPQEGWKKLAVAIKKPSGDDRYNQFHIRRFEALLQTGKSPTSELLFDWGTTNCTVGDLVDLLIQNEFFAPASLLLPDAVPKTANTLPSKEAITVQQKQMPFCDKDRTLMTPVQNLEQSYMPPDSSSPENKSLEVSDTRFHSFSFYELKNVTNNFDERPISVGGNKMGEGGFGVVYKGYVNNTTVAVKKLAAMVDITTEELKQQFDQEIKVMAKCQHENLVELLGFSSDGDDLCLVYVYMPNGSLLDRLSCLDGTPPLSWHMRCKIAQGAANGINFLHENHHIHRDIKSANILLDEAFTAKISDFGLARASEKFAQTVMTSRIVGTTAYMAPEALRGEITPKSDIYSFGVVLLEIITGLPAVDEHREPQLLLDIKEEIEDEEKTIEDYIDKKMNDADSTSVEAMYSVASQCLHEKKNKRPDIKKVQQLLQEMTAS
In words: Inhibition of IRAK4 (unknown origin) assessed as residual activity at 1000 nM by KINOMEscan analysis relative to control.

The structures appear in SMILES notation.

Chain of Phosphatidylinositol 4-phosphate 3-kinase C2 domain-containing subunit beta (Homo sapiens) (O00750 whole entry, the tested form may be a part): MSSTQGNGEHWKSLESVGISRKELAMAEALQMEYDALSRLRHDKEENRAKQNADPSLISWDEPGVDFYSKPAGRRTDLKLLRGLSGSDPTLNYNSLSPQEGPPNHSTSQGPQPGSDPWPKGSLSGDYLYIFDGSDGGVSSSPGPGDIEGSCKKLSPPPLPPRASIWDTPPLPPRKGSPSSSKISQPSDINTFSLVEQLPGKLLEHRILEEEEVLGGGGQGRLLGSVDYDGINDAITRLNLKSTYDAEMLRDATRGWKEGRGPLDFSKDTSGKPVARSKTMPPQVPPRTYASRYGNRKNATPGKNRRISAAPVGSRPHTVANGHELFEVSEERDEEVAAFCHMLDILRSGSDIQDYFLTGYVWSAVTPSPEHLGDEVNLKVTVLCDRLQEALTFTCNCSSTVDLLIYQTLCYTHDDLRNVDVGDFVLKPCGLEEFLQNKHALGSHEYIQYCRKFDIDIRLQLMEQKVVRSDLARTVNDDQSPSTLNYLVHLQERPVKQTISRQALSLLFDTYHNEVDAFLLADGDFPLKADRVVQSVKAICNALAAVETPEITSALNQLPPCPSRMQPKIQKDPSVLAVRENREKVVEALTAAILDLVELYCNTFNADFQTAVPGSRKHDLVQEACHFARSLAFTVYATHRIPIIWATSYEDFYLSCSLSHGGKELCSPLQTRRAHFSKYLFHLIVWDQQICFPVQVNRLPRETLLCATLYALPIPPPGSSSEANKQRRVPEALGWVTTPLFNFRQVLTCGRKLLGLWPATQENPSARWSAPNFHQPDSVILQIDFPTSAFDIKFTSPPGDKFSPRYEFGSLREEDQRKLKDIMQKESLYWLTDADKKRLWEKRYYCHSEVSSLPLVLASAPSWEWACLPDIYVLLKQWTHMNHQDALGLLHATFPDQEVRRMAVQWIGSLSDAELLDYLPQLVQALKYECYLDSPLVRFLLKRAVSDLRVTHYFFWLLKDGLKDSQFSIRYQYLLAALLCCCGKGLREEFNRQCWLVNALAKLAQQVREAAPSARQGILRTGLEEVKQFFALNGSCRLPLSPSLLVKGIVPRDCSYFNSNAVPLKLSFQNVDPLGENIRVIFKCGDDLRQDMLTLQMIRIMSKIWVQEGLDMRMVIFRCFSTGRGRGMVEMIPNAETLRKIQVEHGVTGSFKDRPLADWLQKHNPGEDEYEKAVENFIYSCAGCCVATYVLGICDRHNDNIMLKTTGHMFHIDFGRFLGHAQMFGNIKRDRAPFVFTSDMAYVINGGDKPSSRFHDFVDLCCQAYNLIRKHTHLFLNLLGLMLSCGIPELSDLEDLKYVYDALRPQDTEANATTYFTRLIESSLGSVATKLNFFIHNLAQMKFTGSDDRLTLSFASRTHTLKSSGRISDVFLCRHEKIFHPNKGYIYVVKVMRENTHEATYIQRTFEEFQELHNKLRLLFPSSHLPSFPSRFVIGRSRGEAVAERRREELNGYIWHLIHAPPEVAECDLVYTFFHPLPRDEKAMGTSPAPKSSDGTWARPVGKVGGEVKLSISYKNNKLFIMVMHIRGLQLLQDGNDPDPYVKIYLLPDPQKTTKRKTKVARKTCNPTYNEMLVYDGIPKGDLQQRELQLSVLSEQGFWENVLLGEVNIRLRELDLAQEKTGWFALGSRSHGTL
Chain of Mast/stem cell growth factor receptor Kit (Homo sapiens), P10721 [V559D,T670I] (P10721 whole entry V559D/T670I): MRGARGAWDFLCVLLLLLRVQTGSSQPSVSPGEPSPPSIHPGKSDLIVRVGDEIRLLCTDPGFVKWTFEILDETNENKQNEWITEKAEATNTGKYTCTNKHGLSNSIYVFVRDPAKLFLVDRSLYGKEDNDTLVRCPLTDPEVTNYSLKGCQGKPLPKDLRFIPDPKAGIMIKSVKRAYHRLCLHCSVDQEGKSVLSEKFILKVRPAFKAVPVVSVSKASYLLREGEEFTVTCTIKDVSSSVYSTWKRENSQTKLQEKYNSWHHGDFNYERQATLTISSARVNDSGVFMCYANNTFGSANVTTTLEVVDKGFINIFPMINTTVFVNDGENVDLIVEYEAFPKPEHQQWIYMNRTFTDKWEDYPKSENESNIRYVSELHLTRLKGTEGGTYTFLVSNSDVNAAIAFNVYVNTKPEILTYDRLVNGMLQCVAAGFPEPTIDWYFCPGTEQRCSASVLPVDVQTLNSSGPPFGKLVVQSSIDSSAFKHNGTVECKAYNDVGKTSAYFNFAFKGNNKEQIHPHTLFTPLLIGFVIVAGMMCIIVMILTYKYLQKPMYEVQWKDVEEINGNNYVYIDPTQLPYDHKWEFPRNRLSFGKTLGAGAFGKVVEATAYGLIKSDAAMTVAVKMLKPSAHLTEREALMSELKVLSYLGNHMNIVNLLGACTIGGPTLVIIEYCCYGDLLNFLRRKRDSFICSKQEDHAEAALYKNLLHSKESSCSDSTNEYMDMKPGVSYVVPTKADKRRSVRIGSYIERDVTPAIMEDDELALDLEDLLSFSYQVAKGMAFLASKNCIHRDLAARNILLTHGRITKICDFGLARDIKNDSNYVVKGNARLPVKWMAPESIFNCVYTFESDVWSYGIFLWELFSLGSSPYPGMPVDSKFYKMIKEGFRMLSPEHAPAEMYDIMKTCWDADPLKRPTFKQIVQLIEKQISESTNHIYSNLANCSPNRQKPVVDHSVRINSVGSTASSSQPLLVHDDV
Chain of Serine/threonine-protein kinase PLK3 (Homo sapiens) (Q9H4B4 whole entry, looked up): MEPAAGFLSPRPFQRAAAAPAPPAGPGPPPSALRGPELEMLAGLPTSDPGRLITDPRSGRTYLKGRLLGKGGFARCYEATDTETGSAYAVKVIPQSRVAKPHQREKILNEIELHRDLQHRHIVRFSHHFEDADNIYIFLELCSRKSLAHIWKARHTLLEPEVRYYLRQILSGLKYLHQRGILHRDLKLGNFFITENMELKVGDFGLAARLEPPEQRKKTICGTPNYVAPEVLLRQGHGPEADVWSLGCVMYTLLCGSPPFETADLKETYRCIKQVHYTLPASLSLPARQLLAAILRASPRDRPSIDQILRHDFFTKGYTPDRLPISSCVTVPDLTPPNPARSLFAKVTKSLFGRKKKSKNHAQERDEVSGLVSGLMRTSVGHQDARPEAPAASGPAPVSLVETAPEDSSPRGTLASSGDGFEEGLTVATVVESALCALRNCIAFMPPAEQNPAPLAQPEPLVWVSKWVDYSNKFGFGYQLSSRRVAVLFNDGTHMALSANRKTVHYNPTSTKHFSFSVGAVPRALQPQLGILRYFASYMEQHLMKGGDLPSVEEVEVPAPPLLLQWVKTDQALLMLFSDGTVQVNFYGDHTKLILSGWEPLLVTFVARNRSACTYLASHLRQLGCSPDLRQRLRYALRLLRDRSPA

Take `COc1cc2nc(C)nc(N[C@H](C)c3cccc(-c4cn[nH]c4)c3)c2cc1OC`: the Activity was 90% in assay [1]; 100% in assay [2]; 77% in assay [3]; 92% in assay [4]; 88% in assay [5]; 59% in assay [6].

Turning to `COc1cc2ncnc(N[C@H](C)c3cccc4ccccc34)c2cc1OC`, the Activity came out at 89% in assay [1]; 95% in assay [2]; 86% in assay [3]; 73% in assay [4]; 81% in assay [5]; 83% in assay [6].

Source of the values: ChEMBL document CHEMBL5678818, “Discovery of potent SOS1 inhibitors that block RAS activation via disruption of the RAS-SOS1 interaction” (Proc Natl Acad Sci U S A, 2019).
